Active and inactive are the calls of the source.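 How the source made its calls: active means mean EC50 below 10 µM; inactive means the rest.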
Target: Type-1 angiotensin II receptor (Homo sapiens) (UniProt P30556)
Assay: AGTR1 activation selectivity check – cell-based, CHO-K1 PathHunter, luminescence, set 4, selectivity assay for APJ agonist project, SAR follow-up (AID 493202)
Settings: CHO-K1 AGTR1 PathHunter beta-arrestin, 90 min

Chain of Type-1 angiotensin II receptor (Homo sapiens) (P30556 whole entry, looked up): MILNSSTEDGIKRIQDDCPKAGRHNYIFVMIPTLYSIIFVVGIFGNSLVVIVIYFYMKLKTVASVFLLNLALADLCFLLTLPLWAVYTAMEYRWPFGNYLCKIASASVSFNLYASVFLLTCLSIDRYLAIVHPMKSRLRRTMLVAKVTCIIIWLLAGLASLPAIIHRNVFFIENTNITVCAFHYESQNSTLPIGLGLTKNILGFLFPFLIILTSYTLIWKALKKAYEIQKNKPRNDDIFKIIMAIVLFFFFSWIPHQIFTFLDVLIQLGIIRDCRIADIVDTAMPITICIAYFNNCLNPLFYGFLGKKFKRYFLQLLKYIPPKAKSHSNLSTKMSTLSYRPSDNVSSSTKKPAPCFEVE

Row | SMILES | EC50
1 | CC1=CC(=O)C(C(C)C)=C/C1=N/OS(=O)(=O)c1ccc(OC(F)(F)F)cc1 | > 79 µM (inactive)
2 | CC1=CC(=O)C(C(C)C)=C/C1=N/OS(=O)(=O)c1ccc(C(F)(F)F)cc1 | > 79 µM (inactive)
3 | CC1=CC(=O)C(C(C)C)=C/C1=N/OS(=O)(=O)c1cccnc1 | > 79 µM (inactive)

Next, values leading:

Row | EC50 | SMILES
4 | > 79 µM (inactive) | Cc1cc(O)c(C(C)C)cc1NS(=O)(=O)c1ccccc1
5 | > 79 µM (inactive) | O=S(=O)(Nc1cc(Cl)c(O)c(Cl)c1)c1ccccc1
6 | > 79 µM (inactive) | COC(=O)c1cc(NS(=O)(=O)c2ccccc2)ccc1O
7 | > 79 µM (inactive) | CC1=CC(=O)C(C(C)C)=C/C1=N/OS(=O)(=O)c1ccc(C(C)(C)C)cc1

From PubChem BioAssay AID493202 (Sanford-Burnham Center for Chemical Genomics, 2011)
